One data set relates to PC3. The data set is described as follows: cells. Conditions: Homo sapiens, PC-3, 48 h, read-out: Cytotoxic Effects (IC50), PC3, MTT assay, 48 h. On the technique in general: Tetrazolium dyes change colour on reduction, which living cells bring about.
The subject of data set [1] is HuTu 80 cells. The data set is described as follows: Mitochondrial membrane potential, JC-10 flow cytometry. The format is cell-based, human. Conditions: HuTu 80, 48-h treatment. How it is done: The cells are prepared as in the Cell Apoptosis Assay section. Cells were detached with trypsin/versene solution (1:3), suspended in PBS, collected at 2000 rpm for 5 min, then washed twice with ice-cold PBS, followed by resuspension in JC-10 (10 μg/mL) and incubation at 37 °C for 10 min. The cells were then washed three times and suspended in PBS, and JC-10 fluorescence was observed by flow cytometry (Guava Easy Cyte).
Most forms of apoptosis in mammals are realized not through cell death receptors but through the mitochondrial pathway. In this case, the outer membrane of the mitochondria breaks, and soluble proteins of the intermembrane space enter the cytoplasm. The permeability of the outer membrane of mitochondria is a finely regulated process, and its increase is a key event in triggering apoptosis. Induction of apoptosis by compounds 4b, 5b, 6a, and 8 at concentrations of IC50/2 and IC50 via the mitochondrial pathway on the HuTu 80 cell line was studied by flow cytometry using the fluorescent dye JC-10 from the Mitochondria Membrane Potential Kit.
A general note: Flow cytometry measures light scatter and fluorescence of single cells or particles in a stream.

The subject of data set [2] is HuTu 80 cells. The data set is described as follows: Cell cycle analysis, propidium iodide flow cytometry. The format is cell-based, human. Conditions: HuTu 80, IC50, 48 h, compared with the control. The protocol: The DNA content and cell-cycle distribution after compounds 4b, 5b, 6a, and 8 IC50 concentrations were estimated by flow cytometry. After washing with PBS, treated cells were suspended in 150 μL of PBS, then 0.5 mL of phosphate-citrate buffer (0.05 M, pH 4.0) was added, and the suspension was incubated at room temperature for 5 min to facilitate the extraction of low-molecular-weight DNA. Following centrifugation, the cells were resuspended in 150 μL DNA staining solution (20 μg/mL propidium iodide, 200 μg/mL […]) and incubated in the CO2 incubator (37 °C for 30 min). The distribution of the cell cycle was determined by fluorescence analysis of HuTu 80 cells stained with propidium iodide using Guava easyCyte (Guava easyCyte).

In data set [3] the test system is HuTu 80 cells. The data set is described as follows: Intracellular ROS, CellROX Deep Red flow cytometry. The format is cell-based, human. Conditions: HuTu 80, IC50/2 and IC50, compared with the control. How it is done:
ROS generation was investigated using a flow cytometry assay and the CellROX® Deep Red flow cytometry kit. For this, HuTu 80 cells were harvested at 2000 rpm for 5 min and then washed twice with ice-cold PBS, followed by resuspension in 0.1 mL of medium without FBS, to which was added 0.2 μL of CellROX® Deep Red and incubated at 37 °C for 30 min. After three washes, cells were suspended in PBS, and the cell production of ROS was immediately monitored using a flow cytometer (Guava easy Cyte).

The nature of data set [4]: In vivo acute toxicity, single intraperitoneal injection. The arrangement: species or system mice. Conditions: male, CD-1, mouse, in vivo, ip, male CD-1 mice, single intraperitoneal administration, 14 days, Probit analysis. How it is done: (§1) The study of acute toxicity was performed on males of outbred white mice of the CD-1 line at the age of 2–3 months, weighing 20–30 g. The total number of mice participating in the experiment was 300. Mice were obtained from the Research and Production Enterprise Laboratory Animal Farm based at the Branch of Shemyakin and Ovchinnikov Institute of Bioorganic Chemistry of the Russian Academy of Sciences (Pushchino, Russia). The animals were kept in accordance with in standard conditions in a vivarium with 12 h of daylight and free access to food and water. The animals were fed complete feed made according to specifications (protein 22%, fiber 4% max., fat 5% max, ash 9% max, humidity 13.5% max, caloric value 295 kcal/100 g). The studies were conducted with a single parenteral–intraperitoneal (intra-peritoneal) injection, according to the method.
(§2) The substances were introduced in a sterile saline DMSO (40% vol.) solution. Solutions of the substances were prepared immediately before administration. The total volume of the injected liquid was 0.1 mL/10 g of animal weight. As a control, a group of mice was administered under similar conditions an equivalent amount (0.1 mL/10 g, or 10 mL/kg) of a solvent—40% DMSO on sterile saline solution. The substances were administered in doses ranging from 1 to 100 mg/kg; there were six animals in each group. To assess acute toxicity, the animals were monitored 14 days after administration of the substance, assessing their general condition and recording deaths.
(§3) The study of the acute toxicity parameters of six aminophosphonium salts 4a, 4b, 4d, 5a, 5b, and 6b was performed on male outbreed white mice of the CD-1 line. Acute toxicity was determined with a single parenteral (intraperitoneal) administration in sterile saline/DMSO (40% vol.) solution at doses from 1 to 100 mg/kg. To assess acute toxicity, the animals were monitored for 14 days after the introduction of substances, assessing their general condition and recording deaths. Next, lethal doses LD50, LD0, LD16, LD84, and LD100 were calculated using the Probit analysis method. LD0, LD16, LD84, and LD100 are given in Supplementary Material (Table S1).

The next data set deals with mice of the CD-1 line. The data set is described as above. Conditions: for onset of animal death after administration: doses of LD100; for acute toxicity class: according to the classification [105], parenteral administration. The protocol: as §1, §2, §3
In data set [5] the test system is human volunteer donor erythrocytes. The data set is described as follows: Hemolytic assay. It is filed as cell-based. Conditions: hemolysis in 50% of human erythrocytes, 1 h, 37 °C. The protocol:
The hemolytic activity of Aminophosphonium Salts was assessed by comparing the optical density of a solution containing the test compound with the optical density of blood at 100% hemolysis. Healthy human volunteer donor erythrocytes were used as the object of the study. Red blood cells with EDTA (1.8 mg/mL) were washed three times with saline (0.9% NaCl), centrifuged for 10 min at 800× g rpm, and resuspended in saline (0.9% NaCl) to a concentration of 10%. The tested concentrations (0.1–100 μM) were prepared in physiological solution (0.9% NaCl) (with the addition of 5% DMSO). Compounds at the appropriate dilution (450 μL) were added to 50 μL of a 10% red blood cell suspension. Samples were incubated for 1 h at 37 °C and centrifuged for 10 min at 2000 rpm. The release of hemoglobin was controlled by measuring the optical density of the supernatant on an InvitroLogic microplate reader at λ = 540 nm. A control sample corresponding to zero hemolysis (blank experiment) was prepared by adding 50 μL of a 10% red blood cell suspension to 450 μL of saline (0.9% NaCl). A control sample corresponding to 100% hemolysis was prepared by adding 50 μL of a 10% red blood cell suspension to 450 μL of distilled water. Blood was taken at the Clinic of the Federal Research Center “Kazan Scientific Center of the Russian Academy of Sciences” from healthy donors with their personal consent.

In general, IC50 refers to the concentration that gives 50% inhibition. One may read the HC50 as the concentration that lyses half of the red blood cells. Low readings indicate more damage to red cells, high ones less damage to red cells. Regarding `CCCCCCCC[P+](N(CC)CC)(N(CC)CC)N(CC)CC` [4b, Tris(diethylamino)(octyl)phosphonium iodide], the IC50 in the data set with PC3 is 11.6 ± 0.9 µM. In the data set on HuTu 80 cells [1], the “effect on mitochondrial membrane potential (in words)” value is given as “decrease in the mitochondrial membrane potential”. Moreover, the “effect on cell cycle (in words)” value in the data set with HuTu 80 cells [2] is reported as “significant delay of cells in the G0/G1 phase”. Moreover, the “ROS production, CellROX Deep Red fluorescence (in words)” value (“ROS production” for short) in the data set with HuTu 80 cells [3] is “increase in the fluorescence intensity”. Moreover, in data set [4], the LD50 at 14 days worked out at 43.4 mg/kg. Moreover, in the data set with mice of the CD-1 line (CD-1 mice, i.p.), the “onset of animal death after administration” value (“onset of animal death” below) was 1 to 2 h. In the data set with mice of the CD-1 line, the acute toxicity class entry is recorded as “moderately toxic”. Further, the 50% haemolytic concentration (HC50) in data set [5] was more than 100 µM.
`CCCCCCCCCC[P+](N(CC)CC)(N(CC)CC)N(CC)CC` [4d, Decyltris(diethylamino)phosphonium iodide]: the IC50 in the data set with PC3 stood at 7.3 ± 0.6 µM. In data set [4], the LD50 at 14 days worked out at 6.9 mg/kg. Moreover, the “onset of animal death” value with mice of the CD-1 line (CD-1 mice, i.p.) was 1 to 2 h. In the data set with mice of the CD-1 line, the acute toxicity class entry is “highly toxic”. The LD50 in the data set on mice of the CD-1 line (male CD-1 mice, single intraperitoneal administration, 14 days, Probit analysis) is listed as 5.9 (3.7÷7.6) mg/kg.
Regarding `CCCCCCCC[P+](c1ccccc1)(N(CC)CC)N(CC)CC` [5b, Bis(diethylamino)(octyl)(phenyl)phosphonium iodide], the IC50 in the data set on PC3 was 11.4 ± 0.9 µM. For the same molecule, the “effect on mitochondrial membrane potential (in words)” value in the data set on HuTu 80 cells [1] is given as “decrease in the mitochondrial membrane potential”. Besides, in the data set on HuTu 80 cells [2], the “effect on cell cycle (in words)” value is on record as “significant delay of cells in the G0/G1 phase”. In addition, the “ROS production” value in the data set with HuTu 80 cells [3] was “increase in the fluorescence intensity”. In data set [4], this molecule registered an LD50 at 14 days of 27.9 mg/kg. In addition, the “onset of animal death” value in the data set with mice of the CD-1 line (CD-1 mice, i.p.) was 1 to 2 h. Further, the acute toxicity class entry with mice of the CD-1 line is “moderately toxic”. In data set [5], this molecule displayed a 50% haemolytic concentration (HC50) of more than 100 µM.
Take `CCCCCC[P+](c1ccccc1)(c1ccccc1)N(CC)CC` [6a, (Diethylamino)(hexyl)diphenylphosphonium iodide]: the half-inhibitory concentration (IC50) with PC3 stood at 4 ± 0.3 µM. Moreover, the “effect on mitochondrial membrane potential (in words)” value in the data set with HuTu 80 cells [1] is recorded as “decrease in the mitochondrial membrane potential”. In addition, the “effect on cell cycle (in words)” value in the data set with HuTu 80 cells [2] is “slight change in the cell cycle”. For the same molecule, the “ROS production” value with HuTu 80 cells [3] was “increase in the fluorescence intensity”. The molecule further yielded an HC50 in data set [5] of more than 100 µM.
As to `CCCCCCCC[P+](c1ccccc1)(c1ccccc1)N(CC)CC` [6b, (Diethylamino)(octyl)diphenylphosphonium iodide], the LD50 at 14 days in data set [4] came out at 102 mg/kg. In the data set on mice of the CD-1 line (CD-1 mice, i.p., dose of 150 mg/kg), this molecule displayed a death in animals of 100%. Moreover, in the data set with mice of the CD-1 line (CD-1 mice, i.p., doses of 200 and 400 mg/kg), the time to death was not above 10 min. Moreover, the acute toxicity class entry in the data set on mice of the CD-1 line was “moderately toxic”. The concentration for 50% haemolysis (HC50) in data set [5] was more than 100 µM.
Regarding `CCCCCCCC[P+](c1ccccc1)(c1ccccc1)c1ccccc1` [compound 8, Octyltriphenylphosphonium iodide, reference compound], the concentration for half-maximal inhibition (IC50) in the data set on PC3 came to 0.4 ± 0.03 µM. The “effect on mitochondrial membrane potential (in words)” value in the data set with HuTu 80 cells [1] is listed as “decrease in the mitochondrial membrane potential”. The “effect on cell cycle (in words)” value in the data set with HuTu 80 cells [2] was “significant delay of cells in the G0/G1 phase”. Further, the “ROS production” value in the data set with HuTu 80 cells [3] is “increase in the fluorescence intensity”.
